In patent US9498436B2, “Testosterone solutions for the treatment of testosterone deficiency” (INNOTESTO BVBA, priority 2010, dated 2016):
Values joined by “and” are separate entries in the source; they are usually repeats but may differ in a detail not shown here. Equal values may be shown once.

Assay: Testosterone serum level after oromucosal (buccal) administration of testosterone solution, chemiluminescent-immunoassay
Details: for mean increase of the testosterone level per 500 μg T: 30 minutes after buccal administration; for increase per 100 μg T / increase per 500 μg T: buccal solution; for concentration at 30 min: increase of testosterone serum level, 30 minutes post dose, volunteer, baseline 10-15 nmol/L
Protocol: Devices used in the experimental oromucosal application of the solutions of the invention were glass bottles with a spray device from Valois, type VP7, allowing the administration of volumes of 25 μL, 50 μL and 100 μL
Blood samples were taken and analysed for testosterone serum levels using a chemiluminescent-immunoassay (Access Beckman Coulter).
• Testosterone levels were measured 30 minutes after buccal administration of the testosterone solution by a spray pump with a spray volume of 25 μl, 50 μl or 100 μl. • Oromucosal (buccal,sublingual) testosterone solutions administered were in 17 cases a solution in water containing as main constituents testosterone and RAMEB and in 7 cases testosterone in a solution containing as main excipient isopropyl myristate.

[1] = dose 125 μg T, 30 minutes after administration
[2] = dose 300 μg T, 30 minutes after administration
[3] = dose 375 μg T, 30 minutes after administration, separate applications
[4] = dose 400 μg T, 30 minutes after administration, separate applications
[5] = dose 570 μg T, 30 minutes after administration, separate applications
[6] = dose 1000 μg T, 30 minutes after administration
[7] = dose 1150 μg T, 30 minutes after administration
[8] = mean of 24 buccal applications (17 aqueous, 7 non-aqueous), 30 minutes after administration
[9] = oromucosal, general statement in description

C[C@]12CC[C@H]3[C@@H](CCC4=CC(=O)CC[C@@]43C)[C@@H]1CC[C@@H]2O [testosterone]
testosterone (T) serum level (Volunteer M, sample M3, 10.00 am, aqueous solution 500 μg T at 7.30 am, 375 μg T at 9.30 and 11.30 am): 25.45 nmol/L | testosterone (T) serum level (Volunteer M, sample M4, 12.00 am, aqueous solution 500 μg T at 7.30 am, 375 μg T at 9.30 and 11.30 am): 18.81 nmol/L | mean increase of the testosterone level per 500 μg T (aqueous formulations (testosterone and RAMEB, ethanol 15% v/v), 17 cases): 15.2 nmol/L | increase per 100 μg T [1]: 2.7 nmol/L | increase per 500 μg T [1]: 14 nmol/L | increase per 100 μg T [2]: 4.2 nmol/L | increase per 500 μg T [2]: 21 nmol/L | increase per 100 μg T [3]: 4.3 nmol/L and 2.4 nmol/L | increase per 500 μg T [3]: 22 nmol/L and 12 nmol/L | increase per 100 μg T [4]: 3.0 nmol/L and 2.0 nmol/L | increase per 500 μg T [4]: 15 nmol/L and 10 nmol/L | increase per 100 μg T [5]: 4.0 nmol/L and 4.4 nmol/L | increase per 500 μg T [5]: 20 nmol/L and 22 nmol/L | increase per 100 μg T [6]: 3.8 nmol/L | increase per 500 μg T [6]: 19 nmol/L | increase per 100 μg T [7]: 3.1 nmol/L | increase per 500 μg T [7]: 16 nmol/L | concentration at 30 min (human, serum, other: buccal (oromucosal spray), 400 μg, non-aqueous solution, 50 μL=400 μg testosterone buccally): 18 nM | concentration at 30 min (human, serum, other: buccal (oromucosal spray), 500 μg, aqueous solution, 100 μL (=500 μg testosterone) buccally): 20 nM | concentration at 30 min (human, serum, other: buccal (oromucosal spray), 800 μg, non-aqueous solution, 100 μL=800 μg testosterone buccally): 36 nM | concentration at 30 min (human, serum, other: buccal (oromucosal spray), 1000 μg, aqueous solution, 2×100 μL (=1000 μg testosterone) buccally): 38 nM | concentration at 0 h (human, serum, other: buccal (oromucosal spray), testosterone (T) serum level, Volunteer D, sample D1, 7.30 am (time of first dose), aqueous solution 500 μg T at 7.30, 9.30, 11.30 am): 11.9 nM | concentration at 0.5 h (human, serum, other: buccal (oromucosal) solution, spray, 500 μg, testosterone (T) serum level, Volunteer D, sample D2, 8.00 am, aqueous solution 500 μg T at 7.30, 9.30, 11.30 am): 18.6 nM | concentration at 2.5 h (human, serum, other: buccal (oromucosal) solution, spray, 500 μg, testosterone (T) serum level, Volunteer D, sample D3, 10.00 am, aqueous solution 500 μg T at 7.30, 9.30, 11.30 am): 28.1 nM | concentration at […] (human, serum, other: buccal (oromucosal) solution, spray, 500 μg, testosterone (T) serum level, Volunteer D, sample D4, 12.00 am, aqueous solution 500 μg T at 7.30, 9.30, 11.30 am): 28.7 nM | concentration at 0 h (human, serum, other: buccal (oromucosal) solution, spray, 500 μg, testosterone (T) serum level, Volunteer M, sample M1, 7.30 am (time of first dose), aqueous solution 500 μg T at 7.30 am, 375 μg T at 9.30 and 11.30 am): 8.72 nM | concentration at 0.5 h (human, serum, other: buccal (oromucosal) solution, spray, 500 μg, testosterone (T) serum level, Volunteer M, sample M2, 8.00 am, aqueous solution 500 μg T at 7.30 am, 375 μg T at 9.30 and 11.30 am): 25.5 nM | mean (SD) increase per 100 μg T [8]: 3.1 nmol/L and 3.1(0.9) nmol/L | mean (SD) increase per 500 μg T [8]: 15.7 nmol/L and 15.7(4.6) nmol/L | mean increase of the testosterone level per 500 μg T (non-aqueous formulations (isopropyl myristate, ethanol 15% v/v), 7 cases): 16.7 nmol/L | mean increase in testosterone serum level for each 0.1 mg testosterone dose administered [9]: about 3 nmol/L | mean increase in testosterone serum level for each 0.5 mg testosterone dose administered [9]: about 15 nmol/L
